# US7173014B2, “HIV-specific synthetic oligonucleotides and methods of their use” (priority 1997, dated 2007)
# Tests used:
# [1] = tested on: HIV-1 (IIIB, RF and SK1); experiment: XTT-based anti-HIV assay, laboratory strains of HIV-1; assay type: cell-based
# Source text: (§1) The initial experiment performed involved evaluation of Oligos 12, 32, and 41 against three laboratory strains of HIV-1 (IIIB, RF and SK1) and one strain of HIV-2 (ROD) in parallel with the positive control compound ddC in the XTT-based anti-HIV assay. All these oligonucleotides are active against both HIV-1 and HIV-2.
# CEM-SS sells (AIDS Research and Reference Reagent Program, NIH) or other established human T cell lines used in these experiments were passaged in T-150 flasks for use in the assay. On the day preceding the assay, the cells were split 1:2 to assure they would be in an exponential growth phase at time of infection. On the day of assay the cells were washed twice with tissue culture medium and resuspended in fresh tissue cultures medium. Total cell and viability counting was performed using a hemacytometer and trypan blue dye exclusion. Cell viability was greater than 95% for the cells to be utilized in the assay. The cells were pelleted and resuspended at 2.5×10^4 cells per ml in tissue culture medium. […]
# A pretitered aliquot of virus was removed from the freezer −80° C.) and allowed to thaw slowly to room temperature in a biological safety cabinet. The virus was resuspended and diluted into tissue culture medium such that the amount of virus added to each well in a volume of 50 μl will be the amount determined to give complete cell killing at 6 days post-infection. […]
# After 6 days of incubation at 37° C. in a 5% CO2 incubator, the test plates were analyzed by staining with the tetrazolium dye XTT. XTT-tetrazolium is metabolized by the mitochondrial enzymes of metabolically active cells to a soluble formazan product, allowing the rapid quantitative analysis of the inhibition of HIV-induced cell killing by anti-HIV test substances. […]
# XTT solution was prepared daily as a stock of 1 mg/ml in PBS. […] Adhesive plate sealers were used in place of the lids, the sealed plate was inverted several times to mix the soluble formazan product and the plate was read spectrophotometrically at A450 nm with a Molecular Devices Vmax plate reader.
# [2] = tested on: HIV-2 (ROD); experiment: XTT-based anti-HIV assay, HIV-2; assay type: cell-based; settings: XTT assay
# Source text: as §1
# CEM-SS sells (AIDS Research and Reference Reagent Program, NIH) or other established human T cell lines used in these experiments were passaged in T-150 flasks for use in the assay. On the day preceding the assay, the cells were split 1:2 to assure they would be in an exponential growth phase at time of infection. On the day of assay the cells were washed twice with tissue culture medium and resuspended in fresh tissue cultures medium. Total cell and viability counting was performed using a hemacytometer and trypan blue dye exclusion. Cell viability was greater than 95% for the cells to be utilized in the assay. The cells were pelleted and resuspended at 2.5×10^4 cells per ml in tissue culture medium. Cells were added to the drug-containing plates in a volume of 50 μl.
# A pretitered aliquot of virus was removed from the freezer −80° C.) and allowed to thaw slowly to room temperature in a biological safety cabinet. The virus was resuspended and diluted into tissue culture medium such that the amount of virus added to each well in a volume of 50 μl will be the amount determined to give complete cell killing at 6 days post-infection. In general the virus pools produced with the IIIB isolate of HIV required the addition of 5 μl of virus per well.
# Each plate contained cell control wells (cells only), virus control wells (cells plus virus), drug toxicity control wells (cells plus drug only), drug colorimetric control wells (drug only) as well as experimental wells (drug plus cells plus virus).
# After 6 days of incubation at 37° C. in a 5% CO2 incubator, the test plates were analyzed by staining with the tetrazolium dye XTT. XTT-tetrazolium is metabolized by the mitochondrial enzymes of metabolically active cells to a soluble formazan product, allowing the rapid quantitative analysis of the inhibition of HIV-induced cell killing by anti-HIV test substances. On day 6 post-infection plates were removed from the incubator and observed. The use of round bottom microtiter plates allows rapid macroscopic analysis of the activity of a given test compound by the evaluation of pellet size. The results of the macroscopic observations were confirmed and enhanced by further microscopic analysis.
# XTT solution was prepared daily as a stock of 1 mg/ml in PBS. Phenazine methosulfate (PMS) solution was prepared at 15 mg/ml in PBS and stored in the dark at −20° C. XTT/PMS stock was prepared immediately before use by diluting the PMS 1:100 into PBS and adding 40 μl per ml of XTT solution. Fifty microliters of XTT/PMS was added to each well of the plate and the plate was incubated for an additional 4 hours at 37° C. Adhesive plate sealers were used in place of the lids, the sealed plate was inverted several times to mix the soluble formazan product and the plate was read spectrophotometrically at A450 nm with a Molecular Devices Vmax plate reader.
substance,measurement,setting,value
"Oligo 41: oligonucleotide having SEQ ID NO:6; sequence not printed, not listed in TABLE 2 (UCGCACCCATCTCTCTCCUUC; chemistry not given here)",activity against HIV-1,[1],active
same,level of activity against the HIV-2 strain ROD,[2]; compared with the HIV-1 strains,enhanced level of activity
same,activity against HIV-2,[2]; strain ROD,active
